Experimental data from patent publication US11787799B2 (priority 2015, dated 2023).

Assays:
Coxsackievirus B3-H3 = assay: microbe, parasite or virus in culture; type: cell-based; conditions: read-out: EC50 CVB3-H3
Poliovirus 1 = assay: microbe, parasite or virus in culture; type: cell-based; conditions: read-out: EC50 PV1
Poliovirus 3 = assay: microbe, parasite or virus in culture; type: cell-based; conditions: read-out: EC50 PV3
Enterovirus 71 = assay: microbe, parasite or virus in culture; type: cell-based; conditions: read-out: EC50 EV71
Coxsackievirus A9 = assay: microbe, parasite or virus in culture; type: cell-based; conditions: read-out: EC50 COX A9
Echovirus 6 = assay: microbe, parasite or virus in culture; type: cell-based; conditions: read-out: EC50 ECHO06
Echovirus 11 = assay: microbe, parasite or virus in culture; type: cell-based; conditions: read-out: EC50 ECHO11
Coxsackievirus B1 = assay: microbe, parasite or virus in culture; type: cell-based; conditions: read-out: EC50 CVB1
Coxsackievirus B2 = assay: microbe, parasite or virus in culture; type: cell-based; conditions: read-out: EC50 CVB2
Coxsackievirus B4 = assay: microbe, parasite or virus in culture; type: cell-based; conditions: read-out: EC50 CVB4
Coxsackievirus B5 = assay: microbe, parasite or virus in culture; type: cell-based; conditions: read-out: EC50 CVB5
Echovirus 7 = assay: microbe, parasite or virus in culture; type: cell-based; conditions: read-out: EC50 ECHO07
Echovirus 9 = assay: microbe, parasite or virus in culture; type: cell-based; conditions: read-out: EC50 ECHO09
Enterovirus D68/Fermon = assay: Antiviral assay, Enterovirus D68 strain Fermon in RD cells; type: cell-based
[1] = tested on: Enterovirus D68/US/Mo/14-18949; assay: Antiviral assay, Enterovirus D68 strain US/Mo/14-18949 in RD cells; type: cell-based
[2] = tested on: Enterovirus D68/US/KY/14-18953; assay: Antiviral assay, Enterovirus D68 strain US/KY/14-18953 in RD cells; type: cell-based

SMILES	EC50 (Coxsackievirus B3-H3)	EC50 (Poliovirus 1)	EC50 (Poliovirus 3)	EC50 (Enterovirus 71)	EC50 (Coxsackievirus A9)	EC50 (Echovirus 6)	EC50 (Echovirus 11)	CC50 (HeLa-RW cells)	CC50 (LLC cells)	EC50 (Coxsackievirus B1)	EC50 (Coxsackievirus B2)	EC50 (Coxsackievirus B4)	EC50 (Coxsackievirus B5)	EC50 (Echovirus 7)	EC50 (Echovirus 9)	EC50 (Enterovirus D68/Fermon)	EC50 [1]	EC50 [2]	CC50 (RD cells)
CC(C)n1ncc2c(C(=O)Nc3ccccc3F)cc(-c3ccccc3)nc21 [JX-002]	4500 ± 1500 nM	> 25000 nM	> 25000 nM	5700 ± 1500 nM	5000 nM	4400 ± 600 nM	2900 nM	37500 nM	> 200000 nM										
CC(C)n1ncc2c(C(=O)Nc3c(F)cccc3F)cc(-c3cccs3)nc21 [JX-009]	3200 ± 500 nM	> 25000 nM	> 25000 nM	3400 ± 700 nM	4000 nM	4900 ± 300 nM	2800 nM	> 200000 nM	> 200000 nM										
CC(C)n1ncc2c(C(=O)Nc3cccc(F)c3)cc(-c3cccs3)nc21 [JX-021]	1300 ± 200 nM	> 25000 nM	> 25000 nM	2400 ± 800 nM	1600 nM	1500 ± 500 nM		> 200000 nM	> 200000 nM	2600 ± 500 nM	2600 ± 500 nM	2600 ± 500 nM	2300 nM	2900 nM	1200 nM				
CC(C)n1ncc2c(C(=O)Nc3cc(S(N)(=O)=O)ccc3F)cc(-c3cccs3)nc21 [JX-068]	600 nM	6250 nM	6250 nM	500 nM	600 nM			18000 nM	25000 nM	600 nM	500 nM	500 nM	500 nM		200 nM	50 nM	50 ± 10 nM	110 ± 10 nM	25000 nM
CC(C)n1ncc2c(C(=O)Nc3ccccn3)cc(-c3ccsc3)nc21 [JX-057]	1200 nM	> 10000 nM	> 10000 nM	800 nM			1200 nM	18000 nM	25000 nM	1200 nM	1200 nM	1200 nM	1200 nM		400 nM				
CC(C)n1ncc2c(C(=O)Nc3ccccc3F)cc(-c3ccncc3)nc21 [JX-003]	5100 ± 100 nM	> 25000 nM	> 25000 nM	> 10000 nM	7000 ± 800 nM	9200 ± 3200 nM	5300 nM	37500 nM	45000 nM										
CC(C)n1ncc2c(C(=O)Nc3ccccc3F)cc(-c3cncs3)nc21 [JX-010]	3300 ± 1400 nM	> 25000 nM	> 25000 nM	3700 ± 200 nM	3100 nM	4200 ± 300 nM	3200 nM	> 200000 nM	100000 nM										
CC(C)n1ncc2c(C(=O)Nc3ccc(F)c(F)c3)cc(-c3cccs3)nc21 [JX-015]	1300 ± 100 nM	> 25000 nM	> 25000 nM		1200 nM	1300 ± 100 nM		> 200000 nM	> 200000 nM	2300 nM		3100 nM	2300 nM		600 nM				
CC(C)n1ncc2c(C(=O)Nc3ccccc3F)cc(-c3ccccn3)nc21 [JX-004]	6900 ± 700 nM	> 25000 nM	> 25000 nM	> 10000 nM	6100 ± 2200 nM	7800 ± 1800 nM	3800 nM	> 200000 nM	100000 nM										
CC(C)n1ncc2c(C(=O)Nc3ccc(S(C)(=O)=O)cc3)cc(-c3cccs3)nc21 [JX-047]	600 nM	> 10000 nM	> 10000 nM	500 ± 100 nM	500 nM	300 nM		200000 nM	50000 nM	600 nM	600 nM	600 nM	600 nM	800 nM		300 nM	160 ± 40 nM	300 nM	75000 nM
CC(C)n1ncc2c(C(=O)Nc3ncccn3)cc(-c3ccsc3)nc21 [JX-058]	1200 nM	> 10000 nM	> 10000 nM	1200 nM			1300 nM	40000 nM	50000 nM	1200 nM	1200 nM	1200 nM	1200 nM		600 nM				
CC(C)n1ncc2c(C(=O)Nc3ccccn3)cc(C3CC3)nc21 [JX-071]	4700 nM	> 10000 nM	> 10000 nM	4700 nM				25000 nM	25000 nM	4700 nM	6250 nM			9400 nM		1200 nM		2300 nM	37000 nM
CC(C)n1ncc2c(C(=O)Nc3cncnc3)cc(-c3cccs3)nc21 [JX-066]	700 ± 200 nM	> 10000 nM	> 10000 nM	400 nM	400 nM			18000 nM	20000 nM	500 nM	500 nM	500 nM	500 nM		200 nM	60 ± 20 nM	50 ± 10 nM	150 nM	25000 nM
CC(C)n1ncc2c(C(=O)Nc3ccncn3)cc(-c3ccsc3)nc21 [JX-059]	1200 nM	> 10000 nM	> 10000 nM	800 nM			1200 nM	> 200000 nM	> 200000 nM	1200 nM	1200 nM	1200 nM	1200 nM		400 nM	690 ± 90 nM	570 ± 220 nM	870 ± 310 nM	75000 nM
CC(C)n1ncc2c(C(=O)Nc3ccccc3F)cc(-c3cccnc3)nc21 [JX-005]	7000 ± 2400 nM	> 25000 nM	> 25000 nM	> 10000 nM	7800 ± 2600 nM	9000 nM	4500 nM	37500 nM	50000 nM										
CC(C)n1ncc2c(C(=O)Nc3cccc(C(N)=O)c3)cc(-c3cccs3)nc21 [JX-064]	700 ± 100 nM	6250 nM	6250 nM	500 nM	600 nM			18000 nM	20000 nM	600 nM	600 nM	600 nM	600 nM		200 nM		50 nM	170 nM	25000 nM
